# Test results published in patent publication US20260297080A1, “BICYCLIC COMPOUNDS AS CDK INHIBITORS” (BeOne Medicines I GmbH, priority 2022, published 2026).
# Columns and labels:
# CDK2/Cyclin E1 = CDK2/Cyclin E1 (Homo sapiens, UniProt P24941); assay: CDK2/Cyclin E1 Biochemical Assay (TR-FRET), 0.060 mM ATP; conditions: 0.15 μM Rb (Ser780)-biotin substrate, pH7.0, 60 min preincubation, 120 min reaction, room temperature
# Method in brief: (§1)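 TR-FRET assay with 0.15 μM Rb (Ser780)-biotin substrate and 0-10 μM compound in 50 mM HEPES pH7.0, 50 mM MgCl2, 1 mM DTT. ATP was 0.060 mM for CDK2/Cyclin E1 and 0.015 mM for CDK1/Cyclin B1. Kinase was preincubated with compound 60 min, reacted 120 min at room temperature, and IC50 was fitted (four-parameter) from the 665/620 nm ratio.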
# CDK1/Cyclin B1 = CDK1/Cyclin B1 (Homo sapiens, UniProt P06493); assay: CDK1/Cyclin B1 Biochemical Assay (TR-FRET), 0.015 mM ATP; conditions: 0.15 μM Rb (Ser780)-biotin substrate, pH7.0, 60 min preincubation, 120 min reaction, room temperature
# Method in brief: as §1
# Chain of CDK1/Cyclin B1 (P06493 whole entry): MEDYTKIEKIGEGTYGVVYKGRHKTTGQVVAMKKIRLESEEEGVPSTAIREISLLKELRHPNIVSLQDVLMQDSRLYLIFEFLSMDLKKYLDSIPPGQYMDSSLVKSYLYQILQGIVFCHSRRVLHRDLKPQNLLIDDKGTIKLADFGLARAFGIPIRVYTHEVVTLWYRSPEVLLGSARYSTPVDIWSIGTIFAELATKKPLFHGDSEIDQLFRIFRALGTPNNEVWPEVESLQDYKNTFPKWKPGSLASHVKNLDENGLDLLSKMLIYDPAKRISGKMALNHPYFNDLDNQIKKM
# Chain of CDK1/Cyclin B1 (P14635 whole entry partner): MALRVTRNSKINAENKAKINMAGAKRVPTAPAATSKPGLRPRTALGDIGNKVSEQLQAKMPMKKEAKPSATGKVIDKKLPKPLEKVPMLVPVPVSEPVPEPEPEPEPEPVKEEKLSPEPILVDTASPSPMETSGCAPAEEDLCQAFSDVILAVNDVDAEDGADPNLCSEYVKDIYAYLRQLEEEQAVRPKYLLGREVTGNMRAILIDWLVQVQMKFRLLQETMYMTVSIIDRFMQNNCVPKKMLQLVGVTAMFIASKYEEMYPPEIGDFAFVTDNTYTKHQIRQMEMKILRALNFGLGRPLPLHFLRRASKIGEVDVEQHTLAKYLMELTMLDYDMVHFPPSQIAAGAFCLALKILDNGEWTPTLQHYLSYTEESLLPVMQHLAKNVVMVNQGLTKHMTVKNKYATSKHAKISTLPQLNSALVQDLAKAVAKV
Compound,IC50 (CDK2/Cyclin E1) [nM],IC50 (CDK1/Cyclin B1) [nM]
"CCCNC(=O)O[C@H]1CC[C@@H](c2cc(Nc3ccc4c(c3)CS(=O)(=O)N4)n[nH]2)C1 (single isomer, unassigned) [Example 195a, cis-3-(3-((2,2-dioxido-1,3-dihydrobenzo[c]isothiazol-5-yl)amino)-1H-pyrazol-5-yl)cyclopentyl propylcarbamate]",12,73
"CC(C)NC(=O)O[C@H]1CC[C@@H](c2cc(Nc3ccc4c(c3F)CN(C(C)C3COC3)S4(=O)=O)n[nH]2)C1 (relative stereo) [Example 104, cis-3-(3-((4-fluoro-2-(1-(oxetan-3-yl)ethyl)-1,1-dioxido-2,3-dihydrobenzo[d]isothiazol-5-yl)amino)-1H-pyrazol-5-yl)cyclopentyl isopropylcarbamate]",5.7,244
"COCC(C)(C)NC(=O)O[C@H]1CC[C@@H](c2cc(Nc3ccc4c(c3F)CS(=O)(=O)N4)n[nH]2)C1 (relative stereo) [Example 376, cis-3-(3-((4-fluoro-2,2-dioxido-1,3-dihydrobenzo[c]isothiazol-5-yl)amino)-1H-pyrazol-5-yl)cyclopentyl(1-methoxy-2-methylpropan-2-yl)carbamate]",2.1,31
"O=C(NC1CCC1)O[C@H]1CC[C@@H](c2cc(Nc3ccc4c(c3)CS(=O)(=O)N4)n[nH]2)C1 (single isomer, unassigned) [Example 380b, cis-3-(3-((2,2-dioxido-1,3-dihydrobenzo[c]isothiazol-5-yl)amino)-1H-pyrazol-5-yl)cyclopentyl cyclobutylcarbamate]",0.9,23
"CC1(NC(=O)O[C@H]2CC[C@@H](c3cc(Nc4ccc5c(c4F)CS(=O)(=O)N5CCO)n[nH]3)C2)CC1 (relative stereo) [Example 274, cis-3-(3-((4-fluoro-1-(2-hydroxyethyl)-2,2-dioxido-1,3-dihydrobenzo[c]isothiazol-5-yl)amino)-1H-pyrazol-5-yl)cyclopentyl(1-methylcyclopropyl)carbamate]",1,22
"CC(C)NC(=O)O[C@H]1CC[C@@H](c2cc(Nc3ccc4c(c3)C(C)(C)S(=O)(=O)N4)n[nH]2)C1 (relative stereo) [Example 194, cis-3-(3-((3,3-dimethyl-2,2-dioxido-1,3-dihydrobenzo[c]isothiazol-5-yl)amino)-1H-pyrazol-5-yl)cyclopentyl isopropylcarbamate]",3.7,86
"CC1(NC(=O)O[C@H]2CC[C@@H](c3cc(Nc4ccc5c(c4)CS(=O)(=O)N5)n[nH]3)C2)CCOCC1 (relative stereo) [Example 398, cis-3-(3-((2,2-dioxido-1,3-dihydrobenzo[c]isothiazol-5-yl)amino)-1H-pyrazol-5-yl)cyclopentyl(4-methyltetrahydro-2H-pyran-4-yl)carbamate]",4.9,53
"CNC(=O)O[C@H]1CC[C@@H](c2cc(Nc3ccc4c(c3)CS(=O)(=O)N4C)n[nH]2)C1 (relative stereo) [Example 225, cis-3-(3-((1-methyl-2,2-dioxido-1,3-dihydrobenzo[c]isothiazol-5-yl)amino)-1H-pyrazol-5-yl)cyclopentyl methylcarbamate]",87,789
"CC1(NC(=O)O[C@H]2CC[C@@H](c3cc(Nc4ccc5c(c4F)CS(=O)(=O)N5CCO)n[nH]3)C2)CCOC1 (relative stereo) [Example 393, cis-3-(3-((4-fluoro-1-(2-hydroxyethyl)-2,2-dioxido-1,3-dihydrobenzo[c]isothiazol-5-yl)amino)-1H-pyrazol-5-yl)cyclopentyl(3-methyltetrahydrofuran-3-yl)carbamate]",1.9,119
"COCCN1Cc2c(ccc(Nc3cc([C@@H]4CC[C@H](OC(=O)NC(C)C)C4)[nH]n3)c2C)S1(=O)=O (relative stereo) [Example 36, cis-3-(3-((2-(2-methoxyethyl)-4-methyl-1,1-dioxido-2,3-dihydrobenzo[d]isothiazol-5-yl)amino)-1H-pyrazol-5-yl)cyclopentyl isopropylcarbamate]",18,329
"CN1c2ccc(Nc3cc([C@@H]4CC[C@H](OC(=O)NC5(C)CCC5)C4)[nH]n3)cc2CS1(=O)=O (relative stereo) [Example 233, cis-3-(3-((1-methyl-2,2-dioxido-1,3-dihydrobenzo[c]isothiazol-5-yl)amino)-1H-pyrazol-5-yl)cyclopentyl(1-methylcyclobutyl)carbamate]",1.3,10
"CC[C@H](C)NC(=O)O[C@H]1CC[C@@H](c2cc(Nc3ccc4c(c3F)C(C)NS4(=O)=O)n[nH]2)C1 (single isomer, unassigned) [Example 54d]",3.2,428
"CC1NS(=O)(=O)c2ccc(Nc3cc([C@@H]4CC[C@H](OC(=O)NC5(C)CC5)C4)[nH]n3)c(F)c21 (single isomer, unassigned) [Example 52b, cis-3-(3-((4-fluoro-3-methyl-1,1-dioxido-2,3-dihydrobenzo[d]isothiazol-5-yl)amino)-1H-pyrazol-5-yl)cyclopentyl(1-methylcyclopropyl)carbamate]",2.7,153
"CC(C)NC(=O)O[C@H]1CC[C@@H](c2cc(Nc3ccc4c(c3F)CS(=O)(=O)N4C)n[nH]2)C1 (single isomer, unassigned) [Example 255b, cis-3-(3-((4-fluoro-1-methyl-2,2-dioxido-1,3-dihydrobenzo[c]isothiazol-5-yl)amino)-1H-pyrazol-5-yl)cyclopentyl isopropylcarbamate]",5.2,149
"CC(NC(=O)O[C@H]1CC[C@@H](c2cc(Nc3ccc4c(c3F)CNS4(=O)=O)n[nH]2)C1)C1COC1 (relative stereo) [Example 147, cis-3-(3-((4-fluoro-1,1-dioxido-2,3-dihydrobenzo[d]isothiazol-5-yl)amino)-1H-pyrazol-5-yl)cyclopentyl(1-(oxetan-3-yl)ethyl)carbamate]",9.1,606
"CC(C)NC(=O)O[C@H]1CC[C@@H](c2cc(Nc3ccc4c(c3)C(C)S(=O)(=O)N4)n[nH]2)C1 (single isomer, unassigned) [Example 384a, cis-3-(3-((3-methyl-2,2-dioxido-1,3-dihydrobenzo[c]isothiazol-5-yl)amino)-1H-pyrazol-5-yl)cyclopentyl isopropylcarbamate]",0.8,22
"CC[C@H](C)NC(=O)O[C@H]1CC[C@@H](c2cc(Nc3ccc4c(c3F)CS(=O)(=O)N4C3CC3)n[nH]2)C1 (relative stereo) [Example 278, cis-3-(3-((1-cyclopropyl-4-fluoro-2,2-dioxido-1,3-dihydrobenzo[c]isothiazol-5-yl)amino)-1H-pyrazol-5-yl)cyclopentyl((S)-sec-butyl)carbamate]",1.3,56
"CC(C)NC(=O)O[C@H]1CC[C@@H](c2cc(Nc3ccc4c(c3)C3(CC3)S(=O)(=O)N4)n[nH]2)C1 (relative stereo) [Example 200, cis-3-(3-((2,2-dioxido-1H-spiro[benzo[c]isothiazole-3, 1′-cyclopropan]-5-yl)amino)-1H-pyrazol-5-yl)cyclopentyl isopropylcarbamate]",5.5,75
